In patent US8716263B2, “Synthesis of purine nucleosides” (Gilead Pharmasset LLC, priority 2008, dated 2014):
Where two headings read alike, the source gives them in different places.

Tested on: HCV replicon RNA-containing Huh7 cells (clone A cells)
Test: HCV replicon assay
Type: cell-based
Details: read-out: CloneA EC90
Method: HCV replicon assay. HCV replicon RNA-containing Huh7 cells (clone A cells; Apath, LLC, St. Louis, Mo.) were kept at exponential growth in Dulbecco's modified Eagle's medium (high glucose) containing 10% fetal bovine serum, 4 mM L-glutamine and 1 mM sodium pyruvate, 1×nonessential amino acids, and G418 (1,000 μg/m1). Antiviral assays were performed in the same medium without G418. Cells were seeded in a 96-well plate at 1,500 cells per well, and test compounds were added immediately after seeding. Incubation time 4 days. At the end of the incubation step, total cellular RNA was isolated (RNeasy 96 kit; Qiagen). Replicon RNA and an internal control (TaqMan rRNA control reagents; Applied Biosystems) were amplified in a single-step multiplex RT-PCR protocol as recommended by the manufacturer. The HCV primers and probe were designed with Primer Express software (Applied Biosystems) and covered highly conserved 5′-untranslated region (UTR) sequences (sense, 5′-AGCCATGGCGTTAGTA(T)GAGTGT-3′ (SEQ ID NO: 1), and antisense, 5′-TTCCGCAGACCACTATGG-3′ (SEQ ID NO: 2); probe, 5′-FAM-[…]-TAMRA-3′ SEQ ID NO: 3)).
To express the antiviral effectiveness of a compound, the threshold RT-PCR cycle of the test compound was subtracted from the average threshold RT-PCR cycle of the no-drug control (ΔCtHCV). A ΔCt of 3.3 equals a 1-log 10 reduction (equal to the 90% effective concentration [EC90]) in replicon RNA levels. The cytotoxicity of the test compound could also be expressed by calculating the ΔCtrRNA values. The ΔΔCt specificity parameter could then be introduced (ΔCtHCV−ΔCtrRNA) in which the levels of HCV RNA are normalized for the rRNA levels and calibrated against the no-drug control.

[1] = clone A Huh7 replicon cells, incubation time 4 days, replicon RNA by RT-PCR, ΔCt of 3.3 = 1-log 10 reduction = EC90

Structure (SMILES) | EC90 (Hepatitis C virus, Huh-7, 96 h) [µM] | EC90 [1] [µM] | further results
COc1nc(N)nc2c1ncn2[C@@H]1O[C@H](COP(=O)(N[C@@H](C)C(=O)OC(C)C)Oc2ccccc2)[C@@H](O)[C@@]1(C)F (stereo partly drawn) [Compound 11, (2S)-isopropyl 2-((((2R,3R,4R,5R)-5-(2-amino-6-methoxy-9H-purin-9-yl)-4-fluoro-3-hydroxy-4-methyltetrahydrofuran-2-yl)methoxy) (phenoxy)phosphorylamino)propanoate] | 0.02 |  | 
COc1nc(N)nc2c1ncn2[C@@H]1O[C@@H]2CO[P@](=O)(OC3CCCC3)O[C@H]2[C@@]1(C)F [Compound 24, 6-Methoxy-9-((2R,4aR,6R,7R,7aR)-7-fluoro-2-cyclopentoxy-7-methyl-2-oxo-tetrahydro-2μ^5-furo[3,2-d][1,3,2]dioxaphosphinin-6-yl)-9H-purin-2-ylamine] |  | 0.037 | 
COP1(=O)OC[C@H]2O[C@@H](n3cnc4c(N5CCC5)nc(N)nc43)[C@](C)(F)[C@@H]2O1 (stereo partly drawn) [Compound 15, 6-Azetidin-1-yl-9-((4aR,6R,7R,7aR)-7-fluoro-2-methoxy-7-methyl-2-oxo-tetrahydrofuro[3,2-d][1,3,2]dioxaphosphinin-6-yl)-9H-purin-2-ylamine] | 0.71 |  | 
COC(=O)[C@H](C)NP(=O)(OC[C@H]1O[C@@H](n2cnc3c(N4CCC4)nc(N)nc32)[C@](C)(F)[C@@H]1O)Oc1ccccc1 (stereo partly drawn) [Compound 12] |  | 0.07 | 
C[C@H](NP(=O)(OC[C@H]1O[C@@H](n2cnc3c(O)nc(N)nc32)[C@](C)(F)[C@@H]1O)Oc1ccccc1)C(=O)OC1CCCC1 (stereo partly drawn) [Compound 14, (2S)-cyclopentyl 2-((((2R,3R,4R,5R)-5-(2-amino-6-hydroxy-9H-purin-9-yl)-4-fluoro-3-hydroxy-4-methyltetrahydrofuran-2-yl)methoxy)(phenoxy)phosphorylamino)propanoate] | 0.13 |  | 
COc1nc(N)nc2c1ncn2[C@@H]1O[C@@H]2CO[P@](=O)(OC3CCC3)O[C@H]2[C@@]1(C)F [Compound 23, 6-Methoxy-9-((2R,4aR,6R,7R,7aR)-7-fluoro-2-cyclobutoxy-7-methyl-2-oxo-tetrahydro-2λ^5-furo[3,2-d][1,3,2]dioxaphosphinin-6-yl)-9H-purin-2-ylamine] |  |  | EC90 (Hepatitis C virus, Huh-7, 96 h, clone A Huh7 replicon cells, incubation time 4 days, replicon RNA by RT-PCR, ΔCt of 3.3 = 1-log 10 reduction = EC90): 0.13 µM
